From the CheMixHub viscosity set
± gives the uncertainty stated by the source.

Test: xn = mol fraction of the nth substance listed
Conditions: 101 kPa

`ClC(Cl)(Cl)Cl` + CC(C)(C)O showed a viscosity (298.15 K, x2 = 0.0318) of 0.886 ± 0.009 mPa·s, a viscosity (298.15 K, x2 = 0.044) of 0.888 ± 0.009 mPa·s and a viscosity (298.15 K, x2 = 0.086) of 0.91 ± 0.009 mPa·s. The viscosity (298.15 K, x2 = 0.1644) was 0.958 ± 0.009 mPa·s, the viscosity (298.15 K, x2 = 0.2487) was 1.007 ± 0.01 mPa·s and the viscosity (298.15 K, x2 = 0.3632) was 1.086 ± 0.01 mPa·s. The viscosity (298.15 K, x2 = 0.4833) was 1.221 ± 0.012 mPa·s, the viscosity (298.15 K, x2 = 0.6052) was 1.43 ± 0.014 mPa·s and the viscosity (298.15 K, x2 = 0.7156) was 1.74 ± 0.017 mPa·s. The viscosity (298.15 K, x2 = 0.8301) was 2.392 ± 0.023 mPa·s, the viscosity (298.15 K, x2 = 0.9132) was 3.045 ± 0.03 mPa·s and the viscosity (308.15 K, x2 = 0.0318) was 0.768 ± 0.008 mPa·s. It also gave a viscosity (308.15 K, x2 = 0.044) of 0.77 ± 0.008 mPa·s, a viscosity (308.15 K, x2 = 0.086) of 0.78 ± 0.008 mPa·s and a viscosity (308.15 K, x2 = 0.1644) of 0.801 ± 0.008 mPa·s. The viscosity (308.15 K, x2 = 0.2487) was 0.853 ± 0.008 mPa·s, the viscosity (308.15 K, x2 = 0.3632) was 0.897 ± 0.009 mPa·s and the viscosity (308.15 K, x2 = 0.4833) was 0.987 ± 0.01 mPa·s. The viscosity (308.15 K, x2 = 0.6052) was 1.118 ± 0.011 mPa·s, the viscosity (308.15 K, x2 = 0.7156) was 1.303 ± 0.013 mPa·s and the viscosity (308.15 K, x2 = 0.8301) was 1.67 ± 0.016 mPa·s. The viscosity (308.15 K, x2 = 0.9132) was 1.98 ± 0.02 mPa·s, the viscosity (318.15 K, x2 = 0.0318) was 0.674 ± 0.007 mPa·s and the viscosity (318.15 K, x2 = 0.044) was 0.674 ± 0.007 mPa·s. It also gave a viscosity (318.15 K, x2 = 0.086) of 0.678 ± 0.007 mPa·s, a viscosity (318.15 K, x2 = 0.1644) of 0.693 ± 0.007 mPa·s and a viscosity (318.15 K, x2 = 0.2487) of 0.712 ± 0.007 mPa·s. For the same compound, the viscosity (318.15 K, x2 = 0.3632) was 0.751 ± 0.007 mPa·s, the viscosity (318.15 K, x2 = 0.4833) was 0.806 ± 0.008 mPa·s and the viscosity (318.15 K, x2 = 0.6052) was 0.892 ± 0.009 mPa·s. It also gave a viscosity (318.15 K, x2 = 0.7156) of 1.007 ± 0.01 mPa·s, a viscosity (318.15 K, x2 = 0.8301) of 1.222 ± 0.012 mPa·s and a viscosity (318.15 K, x2 = 0.9132) of 1.381 ± 0.013 mPa·s.
`CCCC(C)=O` + CC(C)=O showed a viscosity (293.15 K, x1 = 0.2) of 0.355 ± 0.004 mPa·s, a viscosity (293.15 K, x1 = 0.4) of 0.391 ± 0.004 mPa·s and a viscosity (293.15 K, x1 = 0.6) of 0.429 ± 0.005 mPa·s. It also gave a viscosity (293.15 K, x1 = 0.8) of 0.467 ± 0.005 mPa·s, a viscosity (313.15 K, x1 = 0.2) of 0.294 ± 0.003 mPa·s and a viscosity (313.15 K, x1 = 0.4) of 0.322 ± 0.004 mPa·s. For the same compound, the viscosity (313.15 K, x1 = 0.6) was 0.349 ± 0.004 mPa·s and the viscosity (313.15 K, x1 = 0.8) was 0.377 ± 0.004 mPa·s.
For `ClC(Cl)(Cl)Cl` + CC(C)=O, the viscosity (293.15 K, x1 = 0.0993) was 0.3621 ± 0.0097 mPa·s, the viscosity (293.15 K, x1 = 0.2003) was 0.4068 ± 0.011 mPa·s and the viscosity (293.15 K, x1 = 0.2968) was 0.4555 ± 0.012 mPa·s. The viscosity (293.15 K, x1 = 0.4207) was 0.5227 ± 0.014 mPa·s, the viscosity (293.15 K, x1 = 0.5193) was 0.5813 ± 0.015 mPa·s and the viscosity (293.15 K, x1 = 0.61) was 0.6398 ± 0.017 mPa·s. For the same compound, the viscosity (293.15 K, x1 = 0.7052) was 0.7073 ± 0.019 mPa·s, the viscosity (293.15 K, x1 = 0.8049) was 0.7845 ± 0.021 mPa·s and the viscosity (293.15 K, x1 = 0.9143) was 0.8843 ± 0.023 mPa·s. It also gave a viscosity (298.15 K, x1 = 0.0993) of 0.3447 ± 0.0093 mPa·s, a viscosity (298.15 K, x1 = 0.2003) of 0.3859 ± 0.01 mPa·s and a viscosity (298.15 K, x1 = 0.2968) of 0.4311 ± 0.011 mPa·s. For the same compound, the viscosity (298.15 K, x1 = 0.4207) was 0.4933 ± 0.013 mPa·s, the viscosity (298.15 K, x1 = 0.5193) was 0.5473 ± 0.015 mPa·s and the viscosity (298.15 K, x1 = 0.61) was 0.6015 ± 0.016 mPa·s. The viscosity (298.15 K, x1 = 0.7052) was 0.6632 ± 0.018 mPa·s, the viscosity (298.15 K, x1 = 0.8049) was 0.7338 ± 0.019 mPa·s and the viscosity (298.15 K, x1 = 0.9143) was 0.8251 ± 0.022 mPa·s. The viscosity (303.15 K, x1 = 0.0993) was 0.3284 ± 0.0089 mPa·s, the viscosity (303.15 K, x1 = 0.2003) was 0.3665 ± 0.0099 mPa·s and the viscosity (303.15 K, x1 = 0.2968) was 0.409 ± 0.011 mPa·s. For the same compound, the viscosity (303.15 K, x1 = 0.4207) was 0.466 ± 0.012 mPa·s, the viscosity (303.15 K, x1 = 0.5193) was 0.5196 ± 0.014 mPa·s and the viscosity (303.15 K, x1 = 0.61) was 0.5667 ± 0.015 mPa·s. For the same compound, the viscosity (303.15 K, x1 = 0.7052) was 0.6234 ± 0.017 mPa·s, the viscosity (303.15 K, x1 = 0.8049) was 0.6889 ± 0.018 mPa·s and the viscosity (303.15 K, x1 = 0.9143) was 0.7757 ± 0.021 mPa·s. It also gave a viscosity (313.15 K, x1 = 0.0993) of 0.3001 ± 0.0081 mPa·s, a viscosity (313.15 K, x1 = 0.2003) of 0.3321 ± 0.009 mPa·s and a viscosity (313.15 K, x1 = 0.2968) of 0.3699 ± 0.0099 mPa·s. It also gave a viscosity (313.15 K, x1 = 0.4207) of 0.4185 ± 0.011 mPa·s, a viscosity (313.15 K, x1 = 0.5193) of 0.4649 ± 0.012 mPa·s and a viscosity (313.15 K, x1 = 0.61) of 0.506 ± 0.013 mPa·s. The viscosity (313.15 K, x1 = 0.7052) was 0.5538 ± 0.015 mPa·s, the viscosity (313.15 K, x1 = 0.8049) was 0.6106 ± 0.016 mPa·s and the viscosity (313.15 K, x1 = 0.9143) was 0.6817 ± 0.018 mPa·s.
Work on `ClC(Cl)(Cl)Cl` + CC(C)CO yielded a viscosity (298.15 K, x2 = 0.0126) of 0.888 ± 0.009 mPa·s, a viscosity (298.15 K, x2 = 0.0461) of 0.896 ± 0.009 mPa·s and a viscosity (298.15 K, x2 = 0.0853) of 0.914 ± 0.009 mPa·s. It also gave a viscosity (298.15 K, x2 = 0.2088) of 0.995 ± 0.01 mPa·s, a viscosity (298.15 K, x2 = 0.2911) of 1.079 ± 0.01 mPa·s and a viscosity (298.15 K, x2 = 0.411) of 1.251 ± 0.012 mPa·s. It also gave a viscosity (298.15 K, x2 = 0.5341) of 1.521 ± 0.014 mPa·s, a viscosity (298.15 K, x2 = 0.7116) of 2.076 ± 0.019 mPa·s and a viscosity (298.15 K, x2 = 0.8407) of 2.631 ± 0.024 mPa·s. The viscosity (308.15 K, x2 = 0.0126) was 0.774 ± 0.008 mPa·s, the viscosity (308.15 K, x2 = 0.0461) was 0.774 ± 0.008 mPa·s and the viscosity (308.15 K, x2 = 0.0853) was 0.791 ± 0.008 mPa·s. For the same compound, the viscosity (308.15 K, x2 = 0.2088) was 0.845 ± 0.008 mPa·s, the viscosity (308.15 K, x2 = 0.2911) was 0.909 ± 0.009 mPa·s and the viscosity (308.15 K, x2 = 0.411) was 1.023 ± 0.01 mPa·s. For the same compound, the viscosity (308.15 K, x2 = 0.5341) was 1.206 ± 0.012 mPa·s, the viscosity (308.15 K, x2 = 0.7116) was 1.581 ± 0.015 mPa·s and the viscosity (308.15 K, x2 = 0.8407) was 1.942 ± 0.018 mPa·s. For the same compound, the viscosity (318.15 K, x2 = 0.0126) was 0.679 ± 0.007 mPa·s, the viscosity (318.15 K, x2 = 0.0461) was 0.679 ± 0.007 mPa·s and the viscosity (318.15 K, x2 = 0.0853) was 0.695 ± 0.007 mPa·s. For the same compound, the viscosity (318.15 K, x2 = 0.2088) was 0.726 ± 0.007 mPa·s, the viscosity (318.15 K, x2 = 0.2911) was 0.77 ± 0.008 mPa·s and the viscosity (318.15 K, x2 = 0.411) was 0.851 ± 0.008 mPa·s. It also gave a viscosity (318.15 K, x2 = 0.5341) of 0.978 ± 0.009 mPa·s, a viscosity (318.15 K, x2 = 0.7116) of 1.235 ± 0.012 mPa·s and a viscosity (318.15 K, x2 = 0.8407) of 1.482 ± 0.014 mPa·s.
